Experiments:
[1] = target: T1, human cytochrome P450 2E1 (Homo sapiens, UniProt P05181); experiment: Steady-state p-nitrophenol oxidation, CYP2E1 inhibition in SUPERSOMES; format: biochemical
T1 construct: purchased BD Biosciences
Protocol: Initial velocities of the oxidation of p-nitrophenol (p-NP) to p-nitrocatechol by human cytochrome P450 2E1 were determined by measuring the absorption at 535 nm or 546 nm to determine product formation as described before.
Alternatively, 100 mM HEPES pH 7.6 was additionally used for the enzyme kinetic measurements. A final concentration of either 50 nM enzyme in form of SUPERSOMES™ from BD Biosciences or microsomes in case of cell culture experiments was added. Reaction was initiated by adding 500 μM (enzyme kinetic measurements) or 0.1 mM (cell culture experiments) NADPH after preincubation at 37° C and stopped by adding 20% trichloroacetic acid (TCA) after 30 minutes to ensure linearity of product formation. The protein concentration for the microsomal fraction was determined by Bradford assay to calculate the results expressed as units of specific activity defined as the amount of enzyme that consumes 1 μmol/L of NADPH per hour per microgram of protein. Inhibitor stock solutions were prepared in 0.1% DMSO and diluted to a final DMSO concentration of 0.003% in the reaction mixture at most to avoid enzyme inhibition by this solvent. Inhibitory constants (Ki) were calculated by non-linear fitting of initial velocities. Maximum inhibition could not be achieved since final inhibitor concentrations were limited by DMSO.
Supplementary file pone.0235990.s002.tif: S2 Fig CYP2E1 inhibition by data base inhibitors. To ascertain whether an imidazole containing compound is already commercially available and better suited for development as a drug can-didate, we performed a large virtual library screening of the ZINK database. We found 14,738 hits. The 5,261 commercially available compounds could be classified as 4,710 synthetic and 551 natural molecules. After docking and final scoring process, the seven best synthetic and the three best natural candidates were purchased and tested in vitro for their potential to inhibit CYP2E1 activity. Different concentrations of these compounds dissolved in DMSO were added to 110 μM p-Nitrophenol in 100 mM HEPES buffer pH 7.6 and SUPERSOMES™ with 50 nM human CYP 2E1 to calculate relative activity values. […] 20 μM corresponds to a DMSO volume of 0.02% (v/v). (TIF) Click here for additional data file.

ethanol-fed Wistar rats [2] = experiment: Liver and serum lipid parameters of ethanol-fed rats; format: in vivo, rat; settings: for liver cholesterol decrease compared to disease group / reduction of ethanol effect on hepatic cholesterol / reduction of ethanol effect on hepatic triglycerides / liver phospholipids decrease compared to disease group / liver triglycerides decrease compared to disease group / reduction of ethanol effect on hepatic phospholipids: liver; for reduction of ethanol effect on hepatic triglycerides: average over 0.4/4/40 mg/kg b.w. (UDCA 40 mg/kg), oral, 10 weeks; for liver phospholipids decrease compared to disease group / liver triglycerides decrease compared to disease group / reduction of ethanol effect on hepatic phospholipids / reduction of ethanol effect on serum triglycerides / serum triglycerides decrease compared to disease group: average over doses (UDCA 40 mg/kg)
Excerpt: A total of 68 female Wistar rats (Institute of Pharmacology and Biochemistry Breeding House, Minsk, Belarus) aged 80–90 days and weighting 180–200 g at the beginning of the experiments were used in the study. Each rat group (n = 6–8) was housed in a separate cage and had free access to the liquid diet during the full study period. Prior to the study, the animals were habituated for seven days to the cage conditions and experimental handling. The rats were maintained in a controlled experimental environment (20–25°C, 40–50% humidity, 12 h light per day, room with a 12-h light/dark cycle).
Rats were divided into ten groups characterized by the diet and the test compounds (S1 Table). Group 1 is the first control group in which a normal solid standard diet was fed for 12 weeks. All other groups received the liquid Lieber-DeCarli (LDC) diet (S2 Table), which combines food and drink in a liquid manner. It was prepared by ssniff Spezialdiäten GmbH, Soest. The addition of maltodextrin to this diet should compensate the pure caloric effect of ethanol, whereby 1.77 g maltodextrin replaces 1 g ethanol. The calorie value of both the control and ethanol diets was the same: 35% calories from fat, 11% from carbohydrates, 18% from protein and 36% from ethanol.
(§1) In the first two weeks rats of all groups–with the exception of group 1 –were fed with LDC diet plus maltodextrin in an appropriate amount to adapt the animals to the liquid diet. Group 2 is the second control group in which the isocaloric diet was administered for further 10 weeks until the end of the experiment. […] The test compounds I-ol, I-an and UDCA were dissolved in a 0.8% aqueous HPMC gel to obtain the appropriate concentrations: (1) I-ol with 0.4, 4 and 40 mg/kg b. w. (2) I-an with 0.4, 4 and 40 mg/kg b. w. (3) UDCA with 40 mg/kg b. w. Rats of group 2 and 3 received only HPMC as a placebo. The LDC diets were fed ad libitum and their intake per cage was controlled daily. The corresponding bottles were stored in the cages from 08:00 a. m. until 06:00 p. m. and replaced by drinking water bottles overnight until 08:00 a. m. in the next morning. Every day at the same time, the test compounds or only HPMC were administered intragastrically by oral gavage with an administration volume of 2 ml/kg b. w. After ten weeks of treatment, the rats were anesthetized with an intraperitoneal injection of a 5% pentobarbital solution and then killed by aorta scarification. Their livers were dissected and liver pieces frozen and stored in liquid nitrogen. A part of the liver was fixed for histological investigations. Blood was collected before sacrifice, centrifuged for serum preparation and finally stored in liquid nitrogen.
The serum marker enzyme activities, alanine aminotransferase (ALT), aspartate aminotransferase (AST), alkaline phosphatase (AP) and gamma-glutamyltransferase (γ-GT) as well as triglycerides and bilirubin were measured according to manufacturer’s instructions using standard commercial kits from Lachema (PLIVA-Lachema Diagnostika, Czech Republic). Serum concentrations of leptin, adiponectin and TNF-alpha were analyzed using commercial ELISA test kits: BioCat GmbH (Heidelberg, German) for adiponectin and TNF-alpha, BioVendor Laboratory Medicine Inc. (Brno, Czech Republic) for leptin. Insulin serum concentration was determined by radioimmunoassay using the commercially available kit RIO-insulin-PG-J125 (IBOCH, Minsk, Belarus). Glucose serum concentration was determined by the Accu-Check Active blood glucose testing system from Roche-Diagnostics GmbH (Mannheim, Germany).
Lipids were extracted with a chloroform: methanol mixture (2:1 v/v). Neutral lipids and phospholipids were separated into classes by thin-layer chromatography (TLC). Lipid fractions (triglycerides, cholesterol and its fractions) were measured in extracts from scraped spots by routine methods using the appropriate commercial kits. […]

ethanol-fed Wistar rats [3] = experiment: Liver histopathology of ethanol-fed rats; format: in vivo, rat; settings: I-ol, I-an in their higher concentrations; UDCA 40 mg/kg b.w.; H.E. staining
Protocol: as §1
Liver samples were selected randomly, fixed in Bouin`s solution and embedded in paraffin wax. Histological sections were prepared and stained with haematoxylin and eosin. Other liver samples were fixed in a solution containing formaldehyde, paraformaldehyde and glutaraldehyde with a subsequent post-fixation in 1% osmium containing phosphate buffer pH 7.4 for further analysis. Liver tissue was embedded in a mixture of butyl-methyl-metacrylates. Semifine sections of 0.5–1.0 μm were stained with Asur II, methylen blue and basic fuxine.

T1 sequence (P05181 whole entry): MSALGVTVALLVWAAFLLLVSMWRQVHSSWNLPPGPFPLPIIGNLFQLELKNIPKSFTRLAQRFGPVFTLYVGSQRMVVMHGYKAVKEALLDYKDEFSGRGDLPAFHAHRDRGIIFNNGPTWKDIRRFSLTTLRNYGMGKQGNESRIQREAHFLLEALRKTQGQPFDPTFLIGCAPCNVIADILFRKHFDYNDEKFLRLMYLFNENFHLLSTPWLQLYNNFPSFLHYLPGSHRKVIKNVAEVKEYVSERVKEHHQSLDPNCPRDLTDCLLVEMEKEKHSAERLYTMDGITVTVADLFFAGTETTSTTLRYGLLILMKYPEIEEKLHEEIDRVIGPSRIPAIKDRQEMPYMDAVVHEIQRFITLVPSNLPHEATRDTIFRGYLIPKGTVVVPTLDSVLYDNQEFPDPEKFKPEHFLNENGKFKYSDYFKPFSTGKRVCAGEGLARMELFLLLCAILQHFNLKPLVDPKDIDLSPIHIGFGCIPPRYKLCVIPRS

| inhibitory effect on CYP2E1 (in words) ([1]; human CYP2E1 SUPERSOMES) | Compound | Ki value (in words) [1] | liver cholesterol decrease compared to disease group (ethanol-fed Wistar rats [2]; UDCA 40 mg/kg) | reduction of ethanol effect on hepatic cholesterol (ethanol-fed Wistar rats [2]; UDCA 40 mg/kg) | reduction of ethanol effect on hepatic triglycerides (ethanol-fed Wistar rats [2]) [%] | liver phospholipids decrease compared to disease group (ethanol-fed Wistar rats [2]) [%] | liver triglycerides decrease compared to disease group (ethanol-fed Wistar rats [2]) [%] | reduction of ethanol effect on hepatic phospholipids (ethanol-fed Wistar rats [2]) | reduction of ethanol effect on serum LDL cholesterol (ethanol-fed Wistar rats [2]; serum, UDCA 40 mg/kg) [%] | reduction of ethanol effect on serum VLDL (ethanol-fed Wistar rats [2]; serum, UDCA 40 mg/kg) [%] | serum LDL cholesterol decrease compared to disease group (ethanol-fed Wistar rats [2]; serum, average over doses) [%] | serum VLDL decrease compared to disease group (ethanol-fed Wistar rats [2]; serum, average over doses) [%] | reduction of ethanol effect on serum triglycerides (ethanol-fed Wistar rats [2]; serum) [%] | serum triglycerides decrease compared to disease group (ethanol-fed Wistar rats [2]; serum) [%] | liver morphology (histopathology, in words) (ethanol-fed Wistar rats [3]) | reduction of ethanol effect on serum LDL cholesterol (ethanol-fed Wistar rats [2]; serum, lowest concentration) [%] |
| --- | --- | --- | --- | --- | --- | --- | --- | --- | --- | --- | --- | --- | --- | --- | --- | --- |
| lower affinity | CCCCCCCCCCCCn1ccnc1 [I-an, 1-Imidazolyldodecane] | nanomolar range | 11% | 82% | 73 | 20 | 41 | completely eliminated | 70 | 59 | 24 | 18 | 83 | 41 | almost complete restoration of the physiological liver morphology | – |
| – | OCCCCCCCCCCCCn1ccnc1 [I-ol] | nanomolar range | no influence | no influence | 71 | 13 | 40 | 65% | – | 55 | – | 17 | 91 | 44 | almost complete restoration of the physiological liver morphology | 61 |

From PMC7377376, “Drug targeting CYP2E1 for the treatment of early-stage alcoholic steatohepatitis” (PLoS ONE, 2020)
